The source made the active and inactive calls.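 The calls were made as follows: active = AC50 no more than tenfold above the top dose tested, or full inhibition at every dose with a flat fit (cut at about 19 µM in these data); inconclusive = flat curve fit with inhibition between 30% and 70%, or poor fit; inactive = AC50 more than tenfold above the top dose tested.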
Tested on: HMLE_sh_eGFP viability, CellTiter-Glo luminescence, 72 h
Test: viability loss of HMLE_sh_eGFP cells – cell-based, luminescence, counter-screen for HMLE_sh_ECad selective toxicity project, dose response (AID 463074);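 also: counterscreen control line to flag general toxicity for the HMLE_sh_ECad screen; potency for loss of viability as luminescence drops below DMSO wells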

Structure (SMILES) | AC50
COc1cccc(C(=O)/C=C/c2ccc(N3CCCCC3)c([N+](=O)[O-])c2)c1 | 6.69 µM
COc1cccc(-c2sc3ccc(OC)cc3c2C#CCCO)c1 | 8.26 µM
COc1ccc(-c2c(-c3cc(OC)cc(OC)c3)n(C)c3ccc(-c4cc(F)cc(OC)c4)cc23)cc1 | > 19.5 µM (inactive)
Cc1ccc(NC(=O)c2nc[nH]c2C(=O)NCCCNC(=O)c2[nH]cnc2C(=O)Nc2ccc(C)cc2)cc1 | 3.86 µM
O=C(NCC(c1cccs1)N1CCOCC1)c1ccc(Cl)s1 (centres undefined) | 1.76 µM
Oc1ccc(N=Nc2c(O)ccc3ccccc23)cc1 | 5.36 µM
COc1cccc(-c2cc3nc4c(c(N5CCC6(CC5)OCCO6)n3n2)CCCC4)c1 | 9.81 µM
Cc1[nH]n(-c2ncc(-c3ccc(Cl)cc3)s2)c(=O)c1C(c1ccc(Cl)cc1)C(C#N)C#N (centres undefined) | 3.86 µM
Cc1ccc(Cl)cc1N1CCN(C(CC(C)C)c2nnnn2CC2CCCO2)CC1 (centres undefined) | 0.808 µM
CNC(=O)c1c(NC(=O)c2ccc(S(=O)(=O)N3CCCc4ccccc43)cc2)sc2c1CCN(C)C2 | 0.987 µM
COc1ccc2nc(N=Nc3ccc(O)c4ccccc34)sc2c1 | 3.27 µM
O=C(NNC1=C(C(=O)C(F)(F)F)CCC1)c1ccc(Br)cc1 | 3.6 µM
Cc1ccc(-n2nnnc2Sc2ccc(S(=O)(=O)NCCN(C)C)cc2[N+](=O)[O-])cc1 | 6.72 µM
Cc1ccc(/C=C/C(=O)c2cc(Br)ccc2OC(=O)c2ccco2)cc1 | 5.92 µM
O=C(/C=C/c1ccc(Cl)c([N+](=O)[O-])c1)Nc1cccc(NC(=O)c2ccco2)c1 | 1.69 µM
C[C@]12CC[C@H](O)C[C@H]1CC[C@@H]1[C@@H]2CC[C@]2(C)[C@@H](C3=CC(=O)OC3)CC[C@]12O | 0.234 µM
NC(=O)CC(NC(=O)c1ccc(Br)cc1)c1ccc(N2CCCCCCC2)c([N+](=O)[O-])c1 (centres undefined) | 7.85 µM
Cc1ccc(S(=O)(=O)Nc2ccc(C(OC(=O)c3ccccc3[N+](=O)[O-])(C(F)(F)F)C(F)(F)F)cc2)cc1 | 7.19 µM
Cn1nc(-c2ccc(Cl)cc2)c2cc(C(=O)NCCCN3CCOCC3)sc21 | 5.94 µM
Cc1ccc(N/N=C/c2c(O)n(-c3ccccc3)c(=O)[nH]c2=O)cc1 | 3.87 µM
O=C(/C=C/c1ccco1)NCC1OCCc2ccccc21 (centres undefined) | > 19.5 µM (inactive)
O=S(=O)(Nc1nc2ccccc2nc1N1CCN(c2ccccc2F)CC1)c1ccc(Cl)cc1 | 5.8 µM
CCC(C)Sc1cccc(-c2nc3ccc(C)cn3c2NCc2ccccc2)c1 (centres undefined) | 2.88 µM
COC(=O)c1cccc(NC(=O)Nc2ccc(Cl)c(Cl)c2)c1 | 11.4 µM
Cn1nnnc1Sc1ncnc2scc(-c3cc4ccccc4o3)c12 | 1.17 µM
OC(COc1cccc2ccccc12)CN1CCN(c2ccc(Cl)cc2)CC1 (centres undefined) | 7.09 µM

Structure (SMILES) | AC50
O=[N+]([O-])c1ccc(COc2ccc(-c3[nH]ncc3-c3ccc(Cl)cc3)c(O)c2)cc1 | 4.01 µM
CCCOc1ccccc1-n1sc2c(c1=S)-c1cc(OC)cc3c1N(C(=O)C3=O)C2(C)C | 9.1 µM
Cc1ccc(NS(=O)(=O)c2sc3ccc(Cl)cc3c2C)cc1 | 3.78 µM
CC1CCN(CC(CS(=O)(=O)c2ccc([N+](=O)[O-])cc2)N2CCC(C)CC2)CC1 (centres undefined) | 6.58 µM
CC(C)(C)c1ccc(C(=O)NC(=S)Nc2nc3c(s2)CCCC3)cc1 | 2.18 µM
O=C(N/N=C/c1ccc(Cl)c([N+](=O)[O-])c1)c1cc(-c2ccccc2)nc2ccccc12 | 4.52 µM
CC(C)(C)c1cc(CSC(=S)NC2CCS(=O)(=O)C2)c(Br)c(C(C)(C)C)c1 (centres undefined) | 3.8 µM
COc1ccc(/C=C2/C(=O)N(c3nc4ccccc4s3)N=C2CSc2ccc(Cl)cc2)cc1 | 6.5 µM
Cc1ccc(NC(=S)Nc2ccc(C(C)C)cc2)cc1S(=O)(=O)N1CCCCCC1 | 3.82 µM
CCCCNc1c(-c2ccc(SC3CCCCC3)c(OC)c2)nc2ccc(C)cn12 | 3.49 µM
Cc1cc([N+](=O)[O-])ccc1-c1ccc(C2Nc3ccccc3C(=O)N2O)o1 (centres undefined) | 6.45 µM
CCCc1ccc(C(=O)NNc2ccc(F)cc2)cc1 | 1.99 µM
O=C(CCc1ccccc1)Nc1sc2c(c1C(=O)O)CCCC2 | > 19.5 µM (inactive)
CCCCCCOc1ccc(OC(=O)c2ccncc2)cc1 | 5.43 µM
COc1ccc(-c2cc([C@H]3[C@@H]4C=CCC[C@@]4(C)C(=O)N3Cc3ccccc3)ccc2F)cc1 | 6.8 µM
CCOC(=S)SCC(=O)Nc1nc(-c2ccc(Br)cc2)cs1 | 3.54 µM
CCn1c(=O)c([N+](=O)[O-])c(Cl)c2ccccc21 | 3.56 µM
CCOC(=O)C1=C(CSc2nc3ccccc3s2)NC(=O)NC1c1ccc(OC)cc1 (centres undefined) | 10.8 µM
CCOc1cccc(/C=N/NC(=O)c2cc(C3CC3)[nH]n2)c1O | 5.72 µM
O=C(Nc1ccccc1)NN(C(=O)CCl)c1ccccc1 | 6.45 µM
Cc1cc(Nc2cccc([N+](=O)[O-])c2)n2c(nc3ccccc32)c1C#N | 9.61 µM
C[C@@]12CCC=C[C@H]1[C@H](c1ccc(F)c(/C=C/c3ccccc3)c1)N(Cc1ccccc1)C2=O | 7.18 µM
COc1ccccc1C(CCNCc1ccc(N(C)C)cc1)c1ccc(OC(C)C)cc1 (centres undefined) | 3.58 µM
COc1ccc(CNCC(O)COc2ccc(C(C)(C)c3ccccc3)cc2)cc1 (centres undefined) | 3.22 µM
OCCN(CCO)CC(O)COc1ccc(C23CC4CC(CC(C4)C2)C3)cc1 (centres undefined) | 0.493 µM
C/C(=N\Nc1ccccc1)c1c(O)n(-c2ccccc2)c(=O)[nH]c1=O | 2.45 µM

Structure (SMILES) | AC50
O=C(CNC(=S)N(Cc1ccccc1)Cc1ccccc1F)NCCc1ccc(Cl)cc1 | 6.98 µM
CCOc1ccc(OCc2cccc(C(=O)Nc3ccc(CN4CCCCC4)cc3)c2)cc1 | 5.38 µM
COc1cc([C@@H]2c3cc4c(cc3[C@@H](O)[C@H]3COC(=O)[C@H]23)OCO4)cc(OC)c1O[Si](C)(C)C(C)(C)C | 6.76 µM
COc1cccc(S(=O)(=O)NCc2ccc(C(=O)Nc3cccc(Cl)c3)cc2)c1 | 4.74 µM
CCc1c(C2(O)CCCCC2)[nH]c2c(C(=O)OC)cc(Cl)cc12 | 2.69 µM
Cc1cc(N2CCN(C)CC2)nc2ccc(NC(=S)NCCC(C)C)cc12 | 7.91 µM
COc1cccc(-c2ccc(C#N)c(OC(=O)c3c(Cl)cccc3Cl)n2)c1 | 4.45 µM
Cc1ccccc1N=C1SC(CC(=O)Nc2ccc3ccccc3c2)C(=O)N1Cc1ccccn1 (centres undefined) | 6.02 µM
O=C(Nc1cccc(Cl)c1N1CCCCC1)c1ccc2c(c1)OCCO2 | 11.4 µM
COC(=O)c1ccc(/C=C/c2c(-c3ccc(OC)cc3)sc3ccccc23)cc1 | 7.05 µM
O=C(/C=C/c1ccccc1[N+](=O)[O-])c1ccccc1Br | 3.64 µM
COc1ccc(Nc2nc(-c3ccccc3O)nc3ccccc23)cc1 | 4.79 µM
CCOc1cc(/C=C\c2[nH]c(=O)[nH]c(=O)c2[N+](=O)[O-])ccc1OC(C)CC (centres undefined) | 8.32 µM
FC(F)(F)c1cccc(NC(=S)N(CCCN2CCCC2)Cc2cccn2Cc2ccc(Cl)cc2)c1 | 3.51 µM
COc1ccc(C(=O)/C=C/c2ccc(OCc3ccccc3)cc2)cc1CSCC(=O)O | 5.81 µM
Cc1ccc(/C=C/C(=O)NCC2COc3ccccc3O2)o1 (centres undefined) | > 19.5 µM (inactive)
CC(=O)O[C@H]1[C@@H](O)[C@H](O)[C@H](Oc2c(O)c(C)c3c4c2[C@@H](C)CC[C@@H]4[C@@H](C)C[C@H]3C=C(C)C)O[C@H]1C | 3.57 µM
Cc1cccc(NC(=O)CCC(=O)N/N=C/c2ccc(O)cc2O)c1 | 10.6 µM
CC(C)=CCc1c(O)cc2c(=O)c3ccc(O)cc3oc2c1O | 6.87 µM
CCCCOc1ccc(C(=O)C(CN2CCOCC2)c2ccccc2)cc1 (centres undefined) | 6.76 µM
Fc1cccc(-n2c(-c3cccs3)nc3nc4ccccc4nc32)c1 | 2.32 µM
COc1cc(/C=C(\C#N)C(=O)NC2CCCCC2C)ccc1OS(=O)(=O)c1ccc(C)cc1 (centres undefined) | 6.69 µM
COc1ccc(Sc2ccc(-c3nc4cnccn4c3NC3CCCCC3)cc2OC)cc1 | 3.57 µM
O=C(NCC1CCCCC1)c1cc2ccccc2cc1O | 7.79 µM
Cc1noc(C)c1COc1cccc(C(=O)Nc2ccc(OCc3ccccc3)cc2)c1 | 15.5 µM
Cc1ccc(C)c(N2CCN(C(=O)c3ccc4c(c3)c(C)c(C)n4C)CC2)c1 | 9.07 µM

Structure (SMILES) | AC50
COc1ccc(CN2C(=O)c3cccnc3C2Nc2cc(Cl)ccc2OC)cc1 (centres undefined) | > 19.5 µM (inactive)
CN1CCC(OC(=O)c2cccc(Cl)c2)CC1 | 3.33 µM
COc1cc(/C=C/c2ccc3cccc(OC)c3n2)c(OC(C)=O)c([N+](=O)[O-])c1 | 16.2 µM
CCN(c1ccccc1)c1nc(C#N)nc(N(CC)c2ccccc2)n1 | 7.07 µM
S=C(Nc1ccc(Oc2ccccc2)cc1)NC1CCCCCC1 | 4.84 µM
COc1ccc2sc(-c3ccccc3OC)c(-c3ccc(OCCN4CCCC4)cc3)c2c1 | 3.74 µM
N#C/C(=C/c1cn(-c2ccccc2)nc1-c1cccc(OCc2ccc(F)cc2)c1)C(=O)NCCCn1ccnc1 | 3.4 µM
O=c1cc(N2CCCCC2)c(-c2ccccc2)nn1Cc1ccc(Cl)cc1 | 3.77 µM
Cc1cc(NC(=O)c2cc(-c3ccncc3)nc3ccccc23)ccc1Br | 6.77 µM
Cc1ccsc1/C=C/c1ccc2cccc(O)c2n1 | 17 µM
O=C(Nc1nc(-c2cccc3ccccc23)cs1)c1ccc2c(c1)S(=O)(=O)c1ccccc1C2=O | 11.3 µM
FC(F)(F)c1cccc(Nc2ncnc3ccccc23)c1 | 1.75 µM
Cc1oc2c(F)c(F)c(F)c(F)c2c1S(=O)(=O)Nc1cccc(C(F)(F)F)c1 | 4.95 µM
COC(=O)C1C(=O)C2=C(CC1C)NC(=O)CC2c1cccc(C)c1 (centres undefined) | > 19.5 µM (inactive)
Cc1c(CCOC(=O)C2C3CC4CC(C3)CC2C4)sc[n+]1CC(=O)c1ccc(Br)cc1 (centres undefined) | 2.44 µM
COc1cccc(O)c1CN1CCC(C(=O)Nc2ccc(-c3cccc(C)c3)cc2)CC1 | 4.06 µM
O=C(Nc1ccc(Cl)c(Cl)c1)Nc1ccccc1NS(=O)(=O)c1cccs1 | 13.6 µM
CC1CCCC(NCC(O)COC(c2ccc(F)cc2)c2ccc(F)cc2)C1C (centres undefined) | 6.69 µM
O=[N+]([O-])c1cccc(-c2cc(-c3cc(Br)ccc3O)[nH]n2)c1 | 7.53 µM
CCCCCCOc1ccc(OC(=O)c2cccnc2)cc1 | 10.1 µM
CC(C)Cn1c(O)c(N=NC(=O)c2cccc(S(=O)(=O)N3CCCCC3)c2)c2ccccc21 | 1.57 µM
COc1ccc(/C=N/NC(=O)c2cc(C34CC5CC(CC(C5)C3)C4)[nH]n2)cc1O | 1.8 µM
O=Cc1cc2ccccc2nc1SCc1ccc(Cl)c(Cl)c1 | 6.37 µM
Cc1cccc(C)c1OCc1cc(C(=O)N2CC3C[C@@H]4CC2C[C@H](C3)C4)no1 | 2.69 µM
CC#CCOC(=O)c1c(C)nc2sc3c(c2c1N)CCC(O)C3 (centres undefined) | 2.65 µM
O=C(Nc1cccc(Cl)c1)Nc1csc([N+](=O)[O-])c1 | 5.64 µM
